# Reference: US6140309A, “Vasoactive effects and free radical generation by β-amyloid peptides” (University of South Florida, priority 1996, dated 2000)
# Experiments:
# aortic rings = test: β-amyloid augmentation of phenylephrine (PE) induced contraction of aortic rings; assay type: cell-based, rat; conditions: for effect of drug on β-amyloid induced enhancement of PE mediated contraction: β-amyloid 5×10^-7 M, PE 4×10^-8 M, L-NMMA 10^-4 M, indomethacin 10^-5 M, SQ 29548 10^-5 M, catalase 1000 units/ml
# Procedure: (§1) Freshly excised rat and porcine blood vessels were placed in Kreb's bicarbonate buffer equilibrated with 5% CO2 in O2. The buffer composition consisted of 118.2 mM NaCl, 4.7 mM KCl, 1.2 mM MgSO4, 2.5 mM CaCl2, 1.2 mM NaH2 PO4, 23 mM NaHCO3 and 11.2 mM glucose. After cleaning the vessels free of fat and other adhering tissues, the vessels were cut into ring segments of approximately 3mm in length. Care was taken not to damage the intimal surface.
# (§2) The blood vessel preparations were mounted on stainless steel hooks attached to a force-displacement transducer and equilibrated under the optimum tension of 1.3 g for a period of sixty minutes in a tissue bath (10 ml) containing oxygenated (5% CO2 in O2) Kreb's buffer at 37° C. The buffer was changed every fifteen minutes. After equilibration for sixty minutes the viability of the blood vessel with intact endothelium was established by constricting the blood vessel using phenylephrine ([…]). This dose of phenylephrine elicited 80% of the maximum response. […] The vessel preparations were washed for fifteen minutes before various manipulations as described below.
# The procedure was then repeated following incubation of the tissue with 10^-6 M β-amyloid for fifteen minutes (P1). The tissue was then rinsed and contractions repeated twice following fifteen minute incubation (P2 & P3) without further addition of β-amyloid. Arrows are shown for points of addition for P3.
# Following a fifteen minute incubation, the preparations were contracted with 10^-7 M phenylephrine (PE) as described earlier. Control contractions with PE alone were carried out in presence of the various test compounds. Values represent the mean ±SEM of four or more experiments. The heat-inactivated SOD was prepared by placing it in boiling water for thirty minutes followed by cooling prior to use. The hydrogen peroxide-inactivated SOD was prepared by exposing SOD to 10 mM H2 O2 for thirty minutes at pH 8.5 and subsequent separation using Microcon filtration system. The amyloid induced PE contraction was blocked by active SOD. Neither albumin or inactivated SOD had any effect on the amyloid activity.
# The effect of preincubation of blood vessel with 10^-6 M β-amyloidon contraction induced by phenylephrine (2,4,8, & 16×10^-8 M is shown in Table 1). The maximum contraction in the absence of β-amyloid is taken as 100% and the values obtained following exposure to β-amyloid are expressed as percent of control value. After washing out phenylephrine and acetylcholine of the control contraction, β-amyloid augmented the phenylephrine induced contractions (P1). This effect was blocked by SOD. Washing out the phenylephrine and acetylcholine of the post peptide contraction and repeating the contractions caused further enhancement (P2). Values represent the mean ±SEM of nine or more experiments.
# The tissue was then incubated for fifteen minutes with β-amyloid (5×10^-7 M) with or without the drug, followed by contractions with PE. The concentrations compounds used were: L-NMMA, an inhibitor of NO synthase (10^-4 M); indomethacin, an inhibitor of the cyclooxygenase pathway (10^-5 M); SQ 29548, a thromboxane A2 receptor antagonist (10^-5 M); and catalase (1000 units/ml). Values are represented as percentage of the maximal contraction obtained with β-amyloid and PE alone and standardized to remove the intrinsic effects (if any) of each drug on PE contraction alone. The results represent the mean ±SEM of five or more experiments.
# rat coronary arteries = test: Constriction of rat coronary arteries by β-amyloid peptides and potentiation of U46619 constriction; assay type: cell-based; conditions: for coronary artery vasoactivity induced by β-amyloid fragments (real time recording): 10^-6 M β-amyloid peptide
# Procedure: The effects of β-amyloid peptide were examined on samples of rat coronary arteries prepared as described above. Referring specifically to FIG. 1, rat coronary arteries were treated with β-amyloid peptide (Aβ40) causing constriction of the coronary arteries.
# FIG. 3 illustrates the effect of various amyloid fragments on the constriction of rat coronary arteries. Following control constriction with 10^-7 M U46619, the tissue samples were rinsed, equilibrated with buffer, and treated with 10^-6 M Aβ peptides for fifteen minutes. Following treatment with the Aβ peptides, the blood vessels were rinsed and again exposed to U46619. The values are expressed as percent of control constriction produced by U46619 alone.
# blood vessel = test: Viability and endothelium test of blood vessel rings: phenylephrine constriction, acetylcholine relaxation; assay type: cell-based, rat; conditions: vessel with or without endothelium
# Procedure: as §1
# The endothelium was removed from some preparations by rubbing the inside of the lumen with a metal spatula for six to ten seconds and subsequent rinsing with buffer. The removal of endothelium was confirmed by testing for relaxation to acetylcholine [Furchgott and Zawadzki, 1980].
# as §2
# coronary arteries = test: Acetylcholine induced relaxation of U46619-preconstricted coronary arteries after Aβ40; assay type: cell-based, rat; conditions: single dose 10^-6 M Aβ40; 10^-7 M U46619; acetylcholine 10^-9 M to 10^-5 M
# Excerpt: The effect of pretreatment of coronary arteries with a single dose (10^-6 M) of Aβ40 on acetylcholine induced relaxation is shown in FIG. 20. The blood vessel was preconstricted with 10^-7 M U46619 and relaxed with increasing doses of acetylcholine (10^-9 M to 10^-5 M).
compound,measurement,setting,value
CNC(=N)NCCC[C@H](N)C(=O)O [L-NMMA],effect of drug on β-amyloid induced enhancement of PE mediated contraction,aortic rings,"none of the compounds used (L-NMMA, indomethacin, SQ29548, or catalase) had any significant effect on the enhancement response"
O=C(O)CCC/C=C\C[C@@H]1[C@H](CNNC(=O)Nc2ccccc2)[C@H]2CC[C@@H]1O2 [SQ29548],effect of drug on β-amyloid induced enhancement of PE mediated contraction,aortic rings,"none of the compounds used (L-NMMA, indomethacin, SQ29548, or catalase) had any significant effect on the enhancement response"
CCCCC[C@H](O)/C=C/[C@@H]1[C@@H](C/C=C\CCCC(=O)O)[C@H]2CO[C@@H]1C2 [U46619],effect of the vasoconstrictor on the coronary artery,rat coronary arteries; U46619 10^-7 M,also caused constriction of the blood vessel
COc1ccc2c(c1)c(CC(=O)O)c(C)n2C(=O)c1ccc(Cl)cc1 [indomethacin],effect of drug on β-amyloid induced enhancement of PE mediated contraction,aortic rings,"none of the compounds used (L-NMMA, indomethacin, SQ29548, or catalase) had any significant effect on the enhancement response"
CNC[C@H](O)c1cccc(O)c1 [phenylephrine],constriction in response to phenylephrine,blood vessel,constricted in response to phenylephrine with or without endothelium
"Aβ25-35: β-amyloid peptide fragment (GSNKGAIIGLM; Amyloid-beta protein 42; UniProt P05067 696-706, looked up, fragment)",coronary artery vasoactivity induced by β-amyloid fragments (real time recording),rat coronary arteries,induce constriction of the coronary artery
Aβ40: Soluble Aβ containing forty amino acids,duration of constriction compared among fragments,rat coronary arteries; 10^-6 M,longest sustained constriction
same,contraction induced in rat coronary artery,"rat coronary arteries; 10^-6 M Aβ, fifteen minutes",small but detectable contraction
same,coronary artery vasoactivity induced by β-amyloid fragments (real time recording),rat coronary arteries,induce constriction of the coronary artery
same,vasoconstriction induced by U46619 following treatment with Aβ,"rat coronary arteries; U46619 10^-7 M, 10^-6 M Aβ fifteen minutes",significantly potentiated
same,effect on vasodilation induced by acetylcholine,coronary arteries,significantly reduced the vasodilation induced by acetylcholine
albumin,effect of test compound on amyloid induced PE contraction (specificity of SOD action),"aortic rings; preincubation before 10^-6 M β-amyloid, fifteen minutes, 10^-7 M PE (FIG. 12c)",did not protect the blood vessel against the effects of β-amyloid
catalase,effect of drug on β-amyloid induced enhancement of PE mediated contraction,aortic rings,"none of the compounds used (L-NMMA, indomethacin, SQ29548, or catalase) had any significant effect on the enhancement response"
